Data as given in PubChem BioAssay AID248 (DTP/NCI, 2004).
Where “and” joins values, the source holds several entries; their conditions need not be identical. Identical values can stand only once. Inconclusive results and toxic doses are left out. No stated cut-off is given here; in the data, active means T/C of 150% or more; inactive means T/C below 125%.

System: L1210 leukemia ip in BDF1 mice, survival T/C
Test: NCI In Vivo Anticancer Drug Screen. Data for tumor model L1210 Leukemia (intraperitoneal) in B6D2F1 (BDF1) mice
Settings: endpoint: mean survival time, higher = longer survival
Outline: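 Transplanted-tumor mice were given test agent; controls received vehicle only. Survival readings from the two groups were divided (treated over control).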

[1] = dose: 50.0 mg/kg/injection, schedule: Q01DX001 (ip), vehicle: saline
[2] = dose: 100.0 mg/kg/injection, schedule: Q01DX001 (ip), vehicle: carboxymethylcellulose (CMC)
[3] = dose: 200.0 mg/kg/injection, schedule: Q01DX001 (ip), vehicle: carboxymethylcellulose (CMC)
[4] = dose: 400.0 mg/kg/injection, schedule: Q01DX001 (ip), vehicle: carboxymethylcellulose (CMC)
[5] = dose: 100.0 mg/kg/injection, schedule: Q01DX001 (ip), vehicle: saline
[6] = dose: 200.0 mg/kg/injection, schedule: Q01DX001 (ip), vehicle: saline
[7] = dose: 400.0 mg/kg/injection, schedule: Q01DX001 (ip), vehicle: saline
[8] = dose: 12.5 mg/kg/injection, schedule: Q01DX009 (ip), vehicle: Klucel (hydroxypropylcellulose) (HPC)
[9] = dose: 25.0 mg/kg/injection, schedule: Q01DX009 (ip), vehicle: Klucel (hydroxypropylcellulose) (HPC)

Measured: T/C

Cc1cc(O)c(O)c(S(=O)(=O)c2ccc(N)cc2)c1
inactive: dose: 75.0 mg/kg/injection, schedule: Q01DX009 (ip), vehicle: carboxymethylcellulose (CMC) 93 % of control | dose: 150.0 mg/kg/injection, schedule: Q01DX009 (ip), vehicle: carboxymethylcellulose (CMC) 89 % of control | dose: 300.0 mg/kg/injection, schedule: Q01DX009 (ip), vehicle: carboxymethylcellulose (CMC) 86 % of control

CCN(CCO)c1ccc(N=O)cc1
inactive: dose: 5.0 mg/kg/injection, schedule: Q01DX001 (ip), vehicle: saline 95 % of control | dose: 10.0 mg/kg/injection, schedule: Q01DX001 (ip), vehicle: saline 101 % of control | [1] 90 % of control

CC1=CC2(C)CCC(=O)C(Cc3c(CCCC4(C)OCCO4)noc3C)=C2CC1 (configuration not stated)
inactive: dose: 100.0 mg/kg/injection, schedule: Q04DX003 (ip), vehicle: Klucel (hydroxypropylcellulose) (HPC) 95 % of control | dose: 200.0 mg/kg/injection, schedule: Q04DX003 (ip), vehicle: Klucel (hydroxypropylcellulose) (HPC) 95 % of control | dose: 400.0 mg/kg/injection, schedule: Q04DX003 (ip), vehicle: Klucel (hydroxypropylcellulose) (HPC) 91 % of control

O=C1CC2CCCC(CCO)(C2)N1 (configuration not stated)
inactive: [2] 91 % of control | [3] 94 % of control | [4] 103 % of control

N#Cc1ccc(S(N)(=O)=O)cc1
inactive: [5] 100 % of control | dose: 100.0 mg/kg/injection, schedule: Q01DX009 (ip), vehicle: acetone 98 % of control | dose: 100.0 mg/kg/injection, schedule: Q04DX003 (ip), vehicle: acetone 96 % of control | [6] 94 % of control | dose: 200.0 mg/kg/injection, schedule: Q04DX003 (ip), vehicle: acetone 94 % of control | [7] 120 % of control | dose: 400.0 mg/kg/injection, schedule: Q04DX003 (ip), vehicle: acetone 100 % of control

O=C(Nc1cc([N+](=O)[O-])ccc1O)Nc1cc(C(F)(F)F)ccc1Cl
inactive: [2] 90 % of control | dose: 100.0 mg/kg/injection, schedule: Q01DX009 (ip), vehicle: carboxymethylcellulose (CMC) 95 % of control and 103 % of control | dose: 100.0 mg/kg/injection, schedule: Q04DX002 (ip), vehicle: carboxymethylcellulose (CMC) 97 % of control and 101 % of control | dose: 100.0 mg/kg/injection, schedule: Q04DX003 (ip), vehicle: carboxymethylcellulose (CMC) 94 % of control | [3] 93 % of control | dose: 200.0 mg/kg/injection, schedule: Q01DX009 (ip), vehicle: carboxymethylcellulose (CMC) 93 % of control and 95 % of control | dose: 200.0 mg/kg/injection, schedule: Q04DX002 (ip), vehicle: carboxymethylcellulose (CMC) 93 % of control and 97 % of control | dose: 200.0 mg/kg/injection, schedule: Q04DX003 (ip), vehicle: carboxymethylcellulose (CMC) 92 % of control | [4] 92 % of control | dose: 400.0 mg/kg/injection, schedule: Q01DX009 (ip), vehicle: carboxymethylcellulose (CMC) 92 % of control and 93 % of control | dose: 400.0 mg/kg/injection, schedule: Q04DX002 (ip), vehicle: carboxymethylcellulose (CMC) 92 % of control and 90 % of control | dose: 400.0 mg/kg/injection, schedule: Q04DX003 (ip), vehicle: carboxymethylcellulose (CMC) 97 % of control

CCOC(=O)CNc1cccc(I)c1
inactive: dose: 100.0 mg/kg/injection, schedule: Q04DX002 (ip), vehicle: Klucel (hydroxypropylcellulose) (HPC) 110 % of control | dose: 200.0 mg/kg/injection, schedule: Q04DX002 (ip), vehicle: Klucel (hydroxypropylcellulose) (HPC) 100 % of control | dose: 400.0 mg/kg/injection, schedule: Q04DX002 (ip), vehicle: Klucel (hydroxypropylcellulose) (HPC) 104 % of control

C1CCC2C(C1)C2(N1CCCC1)N1CCCC1 (configuration not stated)
inactive: dose: 6.25 mg/kg/injection, schedule: Q01DX009 (ip), vehicle: Klucel (hydroxypropylcellulose) (HPC) 101 % of control | [8] 100 % of control | dose: 12.5 mg/kg/injection, schedule: Q04DX003 (ip), vehicle: Klucel (hydroxypropylcellulose) (HPC) 98 % of control | [9] 93 % of control and 92 % of control | dose: 25.0 mg/kg/injection, schedule: Q04DX003 (ip), vehicle: Klucel (hydroxypropylcellulose) (HPC) 98 % of control | dose: 50.0 mg/kg/injection, schedule: Q04DX003 (ip), vehicle: Klucel (hydroxypropylcellulose) (HPC) 94 % of control

CCCCCCCCCCN1C(=O)c2ccccc2S1(=O)=O
inactive: dose: 100.0 mg/kg/injection, schedule: Q01DX009 (ip), vehicle: saline 95 % of control | dose: 100.0 mg/kg/injection, schedule: Q04DX003 (ip), vehicle: saline 97 % of control | dose: 200.0 mg/kg/injection, schedule: Q01DX009 (ip), vehicle: saline 97 % of control | dose: 200.0 mg/kg/injection, schedule: Q04DX003 (ip), vehicle: saline 100 % of control | dose: 400.0 mg/kg/injection, schedule: Q01DX009 (ip), vehicle: saline 97 % of control | dose: 400.0 mg/kg/injection, schedule: Q04DX003 (ip), vehicle: saline 95 % of control

Nc1nc(N)c2nn(-c3ccc(C(=O)O)cc3)nc2n1
inactive: dose: 75.0 mg/kg/injection, schedule: Q01DX001 (ip), vehicle: saline 87 % of control | dose: 150.0 mg/kg/injection, schedule: Q01DX001 (ip), vehicle: saline 86 % of control | dose: 300.0 mg/kg/injection, schedule: Q01DX001 (ip), vehicle: saline 103 % of control

CCCN(CCC)CCCC#N
inactive: dose: 100.0 mg/kg/injection, schedule: Q04DX003 (ip), vehicle: saline with Tween-80 95 % of control | dose: 200.0 mg/kg/injection, schedule: Q04DX003 (ip), vehicle: saline with Tween-80 93 % of control

CCCCCCCCCCCCCCCOc1cc(C=O)ccc1OC
inactive: dose: 100.0 mg/kg/injection, schedule: Q01DX001 (ip), vehicle: Klucel (hydroxypropylcellulose) (HPC) 87 % of control | dose: 200.0 mg/kg/injection, schedule: Q01DX001 (ip), vehicle: Klucel (hydroxypropylcellulose) (HPC) 87 % of control

CN=C(NC)c1ccc(NC(=O)c2ccc(C(=O)Nc3ccc(C(=NC)NC)cc3)c([N+](=O)[O-])c2)cc1
inactive: dose: 1.88 mg/kg/injection, schedule: Q01DX Z (ip), vehicle: saline 100 % of control | dose: 3.75 mg/kg/injection, schedule: Q01DX Z (ip), vehicle: saline 111 % of control | dose: 7.5 mg/kg/injection, schedule: Q01DX Z (ip), vehicle: saline 108 % of control

CCC[CH2][Sn]([Cl])([CH2]CCC)[S]C(=S)NCCNC(=S)[S][Sn]([Cl])([CH2]CCC)[CH2]CCC
inactive: dose: 6.0 mg/kg/injection, schedule: Q04DX002 (ip), vehicle: other 98 % of control | dose: 12.0 mg/kg/injection, schedule: Q04DX002 (ip), vehicle: other 117 % of control | dose: 25.0 mg/kg/injection, schedule: Q04DX002 (ip), vehicle: other 102 % of control

CC(=O)OCC1OC(Oc2ccccc2)C(OC(C)=O)C(OC(C)=O)C1OC(C)=O (configuration not stated)
inactive: dose: 100.0 mg/kg/injection, schedule: Q01DX001 (ip), vehicle: saline with Tween-80 101 % of control | dose: 100.0 mg/kg/injection, schedule: Q01DX009 (ip), vehicle: saline with Tween-80 101 % of control | dose: 200.0 mg/kg/injection, schedule: Q01DX001 (ip), vehicle: saline with Tween-80 96 % of control | dose: 200.0 mg/kg/injection, schedule: Q01DX009 (ip), vehicle: saline with Tween-80 95 % of control | dose: 400.0 mg/kg/injection, schedule: Q01DX001 (ip), vehicle: saline with Tween-80 101 % of control | dose: 400.0 mg/kg/injection, schedule: Q01DX009 (ip), vehicle: saline with Tween-80 96 % of control

NC(N)=NC(N)=Nc1cc(C(F)(F)F)ccc1Cl
inactive: [8] 95 % of control | [9] 95 % of control | dose: 50.0 mg/kg/injection, schedule: Q01DX009 (ip), vehicle: Klucel (hydroxypropylcellulose) (HPC) 113 % of control

CC1=NN(C)C(=O)C1
inactive: [1] 103 % of control | [5] 103 % of control | [6] 103 % of control | [7] 103 % of control
